Results reported in US12018059B2, “Human amylin analog polypeptides and methods of use” (Intarcia Therapeutics, Inc., priority 2018, dated 2024).
Like-named read-outs stand apart in the source and are kept apart here. Positions of bridges follow the written chain, without caps; N, C: chain ends. Residues, ends and D or L forms follow the SMILES beside them.

Assay: Pharmacokinetics, 3-hour intravenous infusion of linear (non-acylated) polypeptides
Parameters: species or system Sprague-Dawley rats
Conditions: rat, in vivo, 0.1 mg/kg
Method: Peptides were dissolved in sterile saline and administered as a 3-hour intravenous infusion to non-fasted male Sprague-Dawley rats (n=3 per group) via femoral vein cannula at a final dose of 0.100 mg/kg. […] Blood samples (approximately 250 μL) were collected for pharmacokinetic analysis via a jugular vein cannula at 0.25, 0.5, 1, 2, 3, 3.17, 3.33, 3.5, 4, 4.5, 5, and 6 hr post-start of infusion (long method) or at 1, 1.5, 2, 2.5, and 3 hr post-start of infusion (steady-state screening method). All samples were collected into microtainer tubes containing K2EDTA as anticoagulant and 25 μL of a protease inhibitor cocktail. Plasma was prepared by centrifugation and stored at −80° C. until analysis. The results of this analysis are shown in Table 9 and few exemplars in FIGS. 3a-3b.
A 60 μL aliquot of each plasma sample was placed into to a 96-well plate. To each well was added 6 μL of 0.5% Tween-20. Plates were then vortexed mixed for 10 minutes at 1200 rpm before 180 μL of 0.1% TFA in 2:1 ethanol:acetonitrile containing an appropriate internal standard was added to each well. Plates were vortex mixed for 5 min at 1300 rpm, and then centrifuged for 10 min at 2844×g. Supernatants (180 μL) were placed into a clean 96-well plate and evaporated under a nitrogen stream at 45° C. Residues were reconstituted in 80 μL of 20% acetonitrile (aq) containing 0.1% formic acid.
A […] aliquot of each plasma sample was diluted with […] of 10 mM ammonium acetate (pH 6.8) containing an appropriate internal standard and loaded onto an Oasis WCX microElution plate (Waters Corporation, Milford, MA) that had been pre-conditioned with […] of methanol and […] of deionized water. Samples were washed with […] of 5% ammonium hydroxide (aq) followed by […] of 20% acetonitrile in water. The analyte was eluted with […] of 5% formic acid in 75:25 acetonitrile:water. The eluent was dried under a nitrogen stream. Residues were reconstituted in 80 μL of 20% acetonitrile (aq) containing 0.1% formic acid.
All calibration standards were prepared in control rat plasma containing K2EDTA and protease inhibitor cocktail.
Samples and standards were analyzed by TurbolonSpray™ UPLC-MS/MS using a system consisting of a CTC HTS PAL auto-injector (Leap, Carrboro, NC), an Agilent Infinity 1290 system with column oven (Palo Alto, CA), a Valco switching valve (Houston, TX), and either an AB Sciex API 5600 TripleTOF™ or Sciex API 4000QTrap mass spectrometer (Framingham, MA). Samples were injected onto a 2.1×50 mm reverse phase C18 analytical column, typically a Waters CORTECS UPLC C18+, 1.6 μm (Waters Corporation, Milford, MA) or similar. […] Initial conditions consisted of 90% A and 10% B. The organic component was increased to 95% B over a period of 3-4 minutes, depending on the peptide. Typical flow rates were 600 μL/min. The column temperature was held constant at 40 or 50° C. Peptides were quantified by monitoring one or more product ions produced from a multiply charged parent ion.

[1] = linear polypeptides, 3-hour intravenous infusion, 0.100 mg/kg, male Sprague-Dawley rats, read-out: CL

clearance (iv) | clearance [1] | SMILES
15.5 mL/min/kg | – | CC[C@H](C)[C@H](NC(=O)[C@@H]1CCCN1C(=O)CNC(=O)[C@H](Cc1ccccc1)NC(=O)[C@H](CC(N)=O)NC(=O)[C@H](CC(N)=O)NC(=O)[C@H](CO)NC(=O)[C@H](CO)NC(=O)[C@H](CCCNC(=N)N)NC(=O)[C@H](Cc1c[nH]cn1)NC(=O)[C@H](CC(C)C)NC(=O)[C@H](CCC(=O)O)NC(=O)[C@H](CC(N)=O)NC(=O)[C@H](CO)NC(=O)[C@H](CC(C)C)NC(=O)[C@H](CCCNC(=N)N)NC(=O)[C@H](CCC(N)=O)NC(=O)[C@@H](NC(=O)[C@H](C)NC(=O)[C@@H]1CSSC[C@H](NC(=O)[C@@H](N)CO)C(=O)N[C@@H](CC(N)=O)C(=O)N[C@@H]([C@@H](C)O)C(=O)N[C@@H](CO)C(=O)N[C@@H]([C@@H](C)O)C(=O)N1)[C@@H](C)O)C(=O)N[C@@H](CC(C)C)C(=O)N1CCC[C@H]1C(=O)N1CCC[C@H]1C(=O)N[C@H](C(=O)N[C@@H](CCCCN)C(=O)N[C@H](C(=O)NCC(=O)N[C@@H](CO)C(=O)N[C@@H](CCC(=O)O)C(=O)N[C@H](C(=O)N[C@@H](Cc1ccc(O)cc1)C(N)=O)[C@@H](C)O)C(C)C)[C@@H](C)O [Compound A34] (H-SCNTSTCATQRLSNELHRSSNNFGPILPPTKVGSETY-NH2; disulfide 2-7)
– | 17.5 mL/min/kg | CC[C@H](C)[C@H](NC(=O)[C@@H]1CCCN1C(=O)CNC(=O)[C@H](Cc1ccccc1)NC(=O)[C@H](CCC(=O)O)NC(=O)[C@H](CC(N)=O)NC(=O)[C@H](CO)NC(=O)[C@H](CO)NC(=O)[C@H](CCCNC(=N)N)NC(=O)[C@H](Cc1c[nH]cn1)NC(=O)[C@H](CC(C)C)NC(=O)[C@H](CCC(=O)O)NC(=O)[C@H](CC(N)=O)NC(=O)[C@H](C)NC(=O)[C@H](CC(C)C)NC(=O)[C@H](CCCNC(=N)N)NC(=O)[C@H](CCC(N)=O)NC(=O)[C@@H](NC(=O)[C@H](C)NC(=O)[C@@H]1CSSC[C@H](NC(=O)[C@@H](N)CO)C(=O)N[C@@H](CC(N)=O)C(=O)N[C@@H]([C@@H](C)O)C(=O)N[C@@H](CO)C(=O)N[C@@H]([C@@H](C)O)C(=O)N1)[C@@H](C)O)C(=O)N[C@@H](CC(C)C)C(=O)N1CCC[C@H]1C(=O)N1CCC[C@H]1C(=O)N[C@H](C(=O)N[C@@H](CC(N)=O)C(=O)N[C@H](C(=O)NCC(=O)N[C@@H](CO)C(=O)N[C@@H](CC(N)=O)C(=O)N[C@H](C(=O)N[C@@H](Cc1ccc(O)cc1)C(N)=O)[C@@H](C)O)C(C)C)[C@@H](C)O [Compound A41] (H-SCNTSTCATQRLANELHRSSNEFGPILPPTNVGSNTY-NH2; disulfide 2-7)

The remaining lines, values behind:

SMILES | clearance (iv) | clearance [1]
CC[C@H](C)[C@H](NC(=O)[C@@H]1CCCN1C(=O)CNC(=O)[C@H](Cc1ccccc1)NC(=O)[C@H](CCC(=O)O)NC(=O)[C@H](CC(N)=O)NC(=O)[C@H](CO)NC(=O)[C@H](CO)NC(=O)[C@H](CCCCN)NC(=O)[C@@H](NC(=O)[C@H](CC(C)C)NC(=O)[C@H](Cc1ccc(O)cc1)NC(=O)[C@H](CC(N)=O)NC(=O)[C@H](C)NC(=O)[C@H](CC(C)C)NC(=O)[C@H](CCCNC(=N)N)NC(=O)[C@H](CCC(N)=O)NC(=O)[C@@H](NC(=O)[C@H](C)NC(=O)[C@@H]1CSSC[C@H](NC(=O)[C@@H](N)CO)C(=O)N[C@@H](CC(N)=O)C(=O)N[C@@H]([C@@H](C)O)C(=O)N[C@@H](CO)C(=O)N[C@@H]([C@@H](C)O)C(=O)N1)[C@@H](C)O)C(C)C)C(=O)N[C@@H](CC(C)C)C(=O)N1CCC[C@H]1C(=O)N1CCC[C@H]1C(=O)N[C@H](C(=O)N[C@@H](CCCCN)C(=O)N[C@H](C(=O)NCC(=O)N[C@@H](CO)C(=O)N[C@@H](CCC(=O)O)C(=O)N[C@H](C(=O)N[C@@H](Cc1ccc(O)cc1)C(N)=O)[C@@H](C)O)C(C)C)[C@@H](C)O [Compound A15] (H-SCNTSTCATQRLANYLVKSSNEFGPILPPTKVGSETY-NH2; disulfide 2-7) | 14.4 mL/min/kg | –
CC[C@H](C)[C@H](NC(=O)[C@@H]1CCCN1C(=O)CNC(=O)[C@H](Cc1ccccc1)NC(=O)[C@H](CC(N)=O)NC(=O)[C@H](CC(N)=O)NC(=O)[C@H](CO)NC(=O)[C@H](CO)NC(=O)[C@H](CCCCN)NC(=O)[C@H](Cc1c[nH]cn1)NC(=O)[C@H](CC(C)C)NC(=O)[C@H](CCC(=O)O)NC(=O)[C@H](CC(N)=O)NC(=O)[C@H](C)NC(=O)[C@H](CC(C)C)NC(=O)[C@H](CCCNC(=N)N)NC(=O)[C@H](CCC(N)=O)NC(=O)[C@@H](NC(=O)[C@H](C)NC(=O)[C@@H]1CSSC[C@H](NC(=O)[C@@H](N)CO)C(=O)N[C@@H](CC(N)=O)C(=O)N[C@@H]([C@@H](C)O)C(=O)N[C@@H](CO)C(=O)N[C@@H]([C@@H](C)O)C(=O)N1)[C@@H](C)O)C(=O)N[C@@H](CC(C)C)C(=O)N1CCC[C@H]1C(=O)N1CCC[C@H]1C(=O)N[C@H](C(=O)N[C@@H](CCCCN)C(=O)N[C@H](C(=O)NCC(=O)N[C@@H](CO)C(=O)N[C@@H](CC(N)=O)C(=O)N[C@H](C(=O)N[C@@H](Cc1ccc(O)cc1)C(N)=O)[C@@H](C)O)C(C)C)[C@@H](C)O [Compound A17] (H-SCNTSTCATQRLANELHKSSNNFGPILPPTKVGSNTY-NH2; disulfide 2-7) | – | 20 mL/min/kg
CC[C@H](C)[C@H](NC(=O)[C@@H]1CCCN1C(=O)CNC(=O)[C@H](Cc1ccccc1)NC(=O)[C@H](CC(N)=O)NC(=O)[C@H](CC(N)=O)NC(=O)[C@H](CO)NC(=O)[C@H](CO)NC(=O)[C@H](Cc1c[nH]cn1)NC(=O)[C@@H](NC(=O)[C@H](CC(C)C)NC(=O)[C@H](CCC(=O)O)NC(=O)[C@H](CC(N)=O)NC(=O)[C@H](C)NC(=O)[C@H](CC(C)C)NC(=O)[C@H](CCCNC(=N)N)NC(=O)[C@H](CO)NC(=O)[C@@H](NC(=O)[C@H](C)NC(=O)[C@@H]1CSSC[C@H](NC(=O)[C@@H](N)CO)C(=O)N[C@@H](CC(N)=O)C(=O)N[C@@H]([C@@H](C)O)C(=O)N[C@@H](CO)C(=O)N[C@@H]([C@@H](C)O)C(=O)N1)[C@@H](C)O)C(C)C)C(=O)N[C@@H](CC(C)C)C(=O)N1CCC[C@H]1C(=O)N1CCC[C@H]1C(=O)N[C@H](C(=O)N[C@@H](CC(N)=O)C(=O)N[C@H](C(=O)NCC(=O)N[C@@H](CO)C(=O)N[C@@H](CC(N)=O)C(=O)N[C@H](C(=O)N[C@@H](Cc1ccc(O)cc1)C(N)=O)[C@@H](C)O)C(C)C)[C@@H](C)O [Compound A32] (H-SCNTSTCATSRLANELVHSSNNFGPILPPTNVGSNTY-NH2; disulfide 2-7) | – | 19.5 mL/min/kg
CC[C@H](C)[C@H](NC(=O)[C@@H]1CCCN1C(=O)CNC(=O)[C@H](Cc1ccccc1)NC(=O)[C@H](CC(N)=O)NC(=O)[C@H](CC(N)=O)NC(=O)[C@H](CO)NC(=O)[C@H](CO)NC(=O)[C@H](CCCNC(=N)N)NC(=O)[C@H](Cc1c[nH]cn1)NC(=O)[C@H](CC(C)C)NC(=O)[C@H](CCC(=O)O)NC(=O)[C@H](CC(N)=O)NC(=O)[C@H](CO)NC(=O)[C@H](CC(C)C)NC(=O)[C@H](CCCNC(=N)N)NC(=O)[C@H](CO)NC(=O)[C@@H](NC(=O)[C@H](C)NC(=O)[C@@H]1CSSC[C@H](NC(=O)[C@@H](N)CO)C(=O)N[C@@H](CC(N)=O)C(=O)N[C@@H]([C@@H](C)O)C(=O)N[C@@H](CO)C(=O)N[C@@H]([C@@H](C)O)C(=O)N1)[C@@H](C)O)C(=O)N[C@@H](CC(C)C)C(=O)N1CCC[C@H]1C(=O)N1CCC[C@H]1C(=O)N[C@H](C(=O)N[C@@H](CCCCN)C(=O)N[C@H](C(=O)NCC(=O)N[C@@H](CO)C(=O)N[C@@H](CCC(=O)O)C(=O)N[C@H](C(=O)N[C@@H](Cc1ccc(O)cc1)C(N)=O)[C@@H](C)O)C(C)C)[C@@H](C)O [Compound A33] (H-SCNTSTCATSRLSNELHRSSNNFGPILPPTKVGSETY-NH2; disulfide 2-7) | 17.7 mL/min/kg | –
